Measured values from ChEMBL document CHEMBL1154665, “Novel compounds designed as antistress agents” (J Med Chem, 2009).

Assays:
[1] = test system: Rattus norvegicus; assay: Antistress activity against food and water deprivation-induced stress in rat assessed as increase in adrenal weight measured per 100 gm of body weight at 0.055 mmol/kg, ip after 3 hrs; assay type: functional
[2] = test system: Rattus norvegicus; assay: Antistress activity against food and water deprivation-induced stress in rat assessed as increase in liver weight measured per 100 gm of body weight at 0.055 mmol/kg, ip after 3 hrs; assay type: functional
[3] = test system: Rattus norvegicus; assay: Antistress activity against food and water deprivation-induced stress in rat assessed as increase in thymus weight measured per 100 gm of body weight at 0.055 mmol/kg, ip after 3 hrs; assay type: functional
[4] = test system: Rattus norvegicus; assay: Antihyperlipidemic activity in triton WR 1339 treated rat assessed as triglyceride at 56 umol/kg, ip measured after 24 hrs; assay type: functional
[5] = test system: Rattus norvegicus; assay: Antistress activity against food and water deprivation-induced stress in rat assessed as decrease in uropepsinogen level in urine at 0.055 mmol/kg, ip after 3 hrs; assay type: functional
[6] = test system: Rattus norvegicus; assay: Antistress activity against food and water deprivation-induced stress in rat assessed as reduction in malondialdehyde formation at 0.055 mmol/kg, ip after 3 hrs; assay type: functional
[7] = test system: Rattus norvegicus; assay: Antihyperlipidemic activity in triton WR 1339 treated rat assessed as plasma total cholesterol at 56 umol/kg, ip measured after 24 hrs; assay type: functional
[8] = test system: Rattus norvegicus; assay: Antihyperlipidemic activity in triton WR 1339 treated rat assessed as LDL-cholesterol at 56 umol/kg, ip measured after 24 hrs; assay type: functional
[9] = test system: Rattus norvegicus; assay: Antistress activity against food and water deprivation-induced stress in rat assessed as change in body weight at 0.055 mmol/kg, ip after 3 hrs; assay type: functional
[10] = test system: Brain; assay: Antioxidant activity in rat brain homogenate assessed as malondialdehyde release; assay type: functional, tissue-based
[11] = organism: Rattus norvegicus; assay: Antistress activity in rat assessed as decrease in stress-induced hepatic cytochrome P450 level by spectroscopically; assay type: functional; set-up: scale not given: the % may be the effect or the level left
[12] = organism: Rattus norvegicus; assay: Antistress activity in rat assessed as decrease in stress-induced oxidative N-demethylation of erythromycin; assay type: functional; set-up: scale not given: the % may be the effect or the level left

SMILES	Activity [1]	Activity [2]	Activity [3]	Activity [4]	Activity [5]	Activity [6]	Activity [7]	Activity [8]	Activity [9]	IC50 [10]	Activity [11]	Activity [12]
CC(C)(C)c1cc(C(=O)NCCCC(=O)OC2N=C(c3ccccc3Cl)c3cc(Cl)ccc3NC2=O)cc(C(C)(C)C)c1O (centres undefined)	40 mg	4.5 mg	151 mg	40%	30 kiloU/hr	41.2 nmol/mg	40%	40%	-3.8%	24 µM		
Cc1c(C)c2c(c(C)c1O)CC[C@](C)(C(=O)O)O2 [(R)-TROLOX]										25 µM		
CC(C)(C)c1cc(C(=O)O)cc(C(C)(C)C)c1O										257 µM		
Cc1c(C)c2c(c(C)c1O)CC[C@](C)(C(=O)NCCCC(=O)OC1N=C(c3ccccc3Cl)c3cc(Cl)ccc3NC1=O)O2 (some centres undefined)	34 mg	4.2 mg	117 mg	40%	34 kiloU/hr	37.5 nmol/mg	40%	40%	-10%	1.1 µM	35%	40%
